According to patent US20250057864A1, “COMPOSITION FOR IMPROVING EXERCISE PERFORMANCE COMPRISING GYPENOSIDE COMPOUND AS ACTIVE INGREDIENT” (BTC CORPORATION, priority 2022, published 2025):

How the values were obtained:
C2C12 cells = assay: Intracellular ROS production in C2C12 cells (DCF-DA); format: cell-based, mice; conditions: oxidative stress by 50 μM TBHP, 1 h pretreatment with test substance
Description: C2C12 cells were dispensed into a 96-well plate at 1×10^4 cells/well and stabilized for 24 hours. Subsequently, the cells were cultured for 1 hour after exchanging with the culture medium with the myocyte differentiation medium containing each test substance. After 1 hour, the cells were washed with PBS and cultured further for 3 hours with a culture medium containing 50 μM tert-butyl hydrogen peroxide (TBHP), and the ROS level in the cells was measured using a DCF-DA assay kit (Abcam) according to the manufacturer's method.
In order to investigate the effect of each of the compositions according to Examples 1 to 4 on ROS production in C2C12 cells, ROS production was measured using 2′,7′-dichlorofluorescin diacetate (DCF-DA). DCF-DA was measured using the principle that it is oxidized by ROS in cells and is converted to DCF, which emits fluorescence.

[1] = system: p-AMPK, p-Sirt1, p-p38, p-Nrf2 in C2C12 cells; assay: Western blot of proteins related with PGC-1α activation in C2C12 cells; format: cell-based, mice; conditions: C2C12, 0.36 μg/mL (Cr 5 μg/mL), control G1 = 1.00
Description: C2C12 cells were dispensed into a 6-well plate at 2×10^5 cells/well and stabilized for 24 hours. In order to investigate the effect of each test substance on muscle cell differentiation, each test substance was added to the myocyte differentiation medium. The cells were cultured for 4 days (mRNA analysis) or 7 days (protein analysis) after exchanging the cell culture medium with the myocyte differentiation medium treated with each test substance, as shown in Table 2.
C2C12 cells were dispensed into a 6-well plate at 2×10^5 cells/well and stabilized for 24 hours. The cells were cultured for 7 days after exchanging the culture medium with a myocyte differentiation medium containing the test substance. After the induction of differentiation for 7 days, the cells were homogenized by adding a lysis buffer (20 mmol/L HEPES, pH 7.5, 150 mmol/L NaCl, 1% Triton X-100, 1 mmol/L EDTA, 1 mmol/L EGTA, 100 mmol/L NaF, 10 mmol/L sodium pyrophosphate, 1 mmol/L Na3VO4, 20 μg/mL aprotinin, 10 μg/mL antipain, 10 μg/mL leupeptin, 80 μg/mL benzamidine HCl, 0.2 mmol/L PMSF) and a total cell lysate was obtained through centrifugation. The protein quantity of the total cell lysate was measured using a BCA protein assay kit (Thermo Scientific). The total cell lysate (50 μg) was separated by 10% sodium dodecyl sulfate polyacrylamide gel electrophoresis (SDS-PAGE) and then transferred to a polyvinylidene difluoride membrane (Milipore). The membrane was blocked for 1 hour in 5% skim milk-TBST (20 mmol/L Tris·HCl, pH 7.5, 150 mmol/L NaCl, 0.1% Tween 20) and then incubated for 16 hours at 4° C. or for 1 hour at room temperature after adding antibodies. Thereafter, horseradish peroxidase (HRP)-linked anti-rabbit IgG or HRP-linked anti-mouse IgG was added and the mixture was stirred for 1 hour. The detected protein bands were visualized by enhanced chemiluminescence using a Luminata™ Forte Western HRP substrate (Millipore). The level of protein expression was quantified using the ImageQuant™ LAS 500 imaging system (GE Healthcare Bio-Sciences AB).
The result of western blot analysis conducted using the total cell lysate obtained by treating with the test substance to investigate the effect of the test substance on the changes in proteins associated with PGC-1α activation is shown in Table 6.
Based on the western blot analysis result, the activity of each protein was evaluated from the ratio of activation.

`O=C(O)c1ccc2c3c1cccc3c(=O)n1c3ccccc3nc21` [STO] was tested, and the “ROS production (fluorescence intensity)” value (C2C12 cells) was 33.97±2.22 fluorescence intensity, the p-AMPK/AMPK ratio [1] was “significantly inhibited” and the p-Nrf2/Nrf2 ratio [1] was “significantly inhibited”. The p-p38/p38 ratio [1] was “significantly inhibited”.
